In article PMC12751025, “α‑Aminoboronic Acid Moieties in Boro Dipeptides Modulate Proteasome Subunit Selectivity and Provide Access to Compounds with Potent Anticancer and Anti-Inflammatory Activity” (Journal of Medicinal Chemistry, 2025):
Where “and” joins values, the source holds several entries; their conditions need not be identical. Identical values can stand only once. Like-named read-outs stand apart in the source and are kept apart here.

Key:
β5c subunit of human cCP = target: T1, β5c subunit of human cCP (Homo sapiens, UniProt P20618+P28074); assay: IC50 determination with fluorogenic substrate Ac-WLA-AMC; format: biochemical
T1 construct: purchased Boston Biochem, Inc
Method: (§1) The measurements of the residual activity of control compounds were carried out at final compound concentrations of 1 μM in the assay buffer (50 mM Tris-HCl, 0.5 mM ethylenediaminetetraacetic acid (EDTA), pH 7.4). Stock solutions of the compounds were prepared in DMSO. To the 35 μL of solution of the compound in the buffer, 35 μL of 0.4 nM human iCP (South Bay Bio, San Jose, CA, USA) or human cCP (Boston Biochem, Inc., Cambridge, MA, USA) was added. For assays evaluating the activity of β2c and β2i, the buffer was modified by adding the proteasomal activator PA28β (Boston Biochem, Inc., Cambridge, MA, USA) at a final concentration of 6 nM. […] The substrates used were acetyl-Nle-Pro-Nle-Asp-7-amino-4-methylcoumarin (Ac-nLPnLD-AMC, Bachem, Bubendorf, Switzerland) for β1c, acetyl-Pro-Ala-Leu-7-amino-4-methylcoumarin (Ac-PAL-AMC, Boston Biochem, Inc., Cambridge, MA, USA) for β1i, acetyl-Arg-Leu-Arg-7-amino-4-methylcoumarin (Ac-RLR-AMC, Bachem, Bubendorf, Switzerland) for β2c and β2i, acetyl-Trp-Leu-Ala-7-amino-4-methylcoumarin (Ac-WLA-AMC, Bachem, Bubendorf, Switzerland) for β5c, and acetyl-Ala-Asn-Trp-7-amino-4-methylcoumarin (Ac-ANW-AMC, Bachem, Bubendorf, Switzerland) for β5i. Progress of the reaction was measured using a BioTek Synergy HT microplate reader, monitoring fluorescence at 460 nm (excitation at 360 nm) for 60 min at 37 °C. The initial linear ranges were used to calculate the reaction velocity and determine the residual activity.
(§2) The final assay mixtures contained 0.4 nM human iCP or cCP in assay buffer (50 mM Tris-HCl, 0.5 mM EDTA, pH 7.4, addition of PA28β for β2c and β2i subunits). […] After incubation at 37 °C for 30 min, the reaction was initiated by the addition of the substrate Ac-nLPnLD-AMC for β1c, Ac-PAL-AMC for β1i, Ac-RLR-AMC for β2c and β2i, Ac-WLA-AMC for β5c, and Ac-ANW-AMC for β5i. Fluorescence was monitored at 460 nm (excitation at 360 nm) for 60 min at 37 °C. The reaction progress was recorded and the initial linear phases were used to determine the velocity. The IC50 values were calculated using GraphPad Prism software (GraphPad Software, San Diego, CA, USA), and the results represent the mean values of at least three independent determinations.

β5i subunit of human iCP = β5i subunit of human iCP (Homo sapiens, UniProt P20618+P28062); assay: IC50 determination with fluorogenic substrate Ac-ANW-AMC; details: for IC50: IC50 β5i
Method: as §1, §2

β1i subunit of human iCP = β1i subunit of human iCP (Homo sapiens, UniProt P28065+P40306); assay: IC50 determination with subunit-specific fluorogenic substrate Ac-PAL-AMC; details: for IC50: IC50 β1i
Method: as §1, §2

LPS-stimulated PBMCs = assay: Cytokine secretion, Cytometric Bead Array; format: cell-based, human; details: 250 nM; 1 h pretreatment, LPS 1 μg/mL, 24 h; IL-1, IL-6, IL-8, IL-10, TNF-α
Method: PBMCs (1.5 × 10^6/mL) were plated in culture media in 96-well round-bottom plates. After a 60 min treatment with compounds at 37 °C and 5% CO2, cells were stimulated with LPS (Escherichia coli, O111:B4, 1 μg/mL, Sigma) for 24 h. Supernatants were then collected and analyzed for cytokine release by Human Inflammatory Cytokine Cytometric Bead Array (BD Biosciences, New Jersey, USA).

β2i subunit of human iCP = β2i subunit of human iCP (Homo sapiens, UniProt P40306+P49720); assay: IC50 determination with fluorogenic substrate Ac-RLR-AMC (PA28β added)
Method: as §1, §2

β1c subunit of human cCP = target: T2, β1c subunit of human cCP (Homo sapiens, UniProt P28072+Q99436); assay: IC50 determination with subunit-specific fluorogenic substrate Ac-nLPnLD-AMC; format: biochemical
T2 construct: purchased Boston Biochem, Inc
Method: as §1, §2

[1] = system: all subunits of the human cCP and iCP; assay: Subunit inhibition profile and preference across cCP and iCP subunits; format: biochemical; details: for fold lower potency on the cCP counterparts of β1i and β5i: β1c, β5c vs β1i
Method: as §2

β2c subunit of human cCP = target: T3, β2c subunit of human cCP (Homo sapiens, UniProt P49720+Q99436); assay: IC50 determination with fluorogenic substrate Ac-RLR-AMC (PA28β added); format: biochemical
T3 construct: purchased Boston Biochem, Inc
Method: Stock solutions of the compounds were prepared in DMSO. To the 35 μL of solution of the compound in the buffer, 35 μL of 0.4 nM human iCP (South Bay Bio, San Jose, CA, USA) or human cCP (Boston Biochem, Inc., Cambridge, MA, USA) was added. For assays evaluating the activity of β2c and β2i, the buffer was modified by adding the proteasomal activator PA28β (Boston Biochem, Inc., Cambridge, MA, USA) at a final concentration of 6 nM. […] The substrates used were acetyl-Nle-Pro-Nle-Asp-7-amino-4-methylcoumarin (Ac-nLPnLD-AMC, Bachem, Bubendorf, Switzerland) for β1c, acetyl-Pro-Ala-Leu-7-amino-4-methylcoumarin (Ac-PAL-AMC, Boston Biochem, Inc., Cambridge, MA, USA) for β1i, acetyl-Arg-Leu-Arg-7-amino-4-methylcoumarin (Ac-RLR-AMC, Bachem, Bubendorf, Switzerland) for β2c and β2i, acetyl-Trp-Leu-Ala-7-amino-4-methylcoumarin (Ac-WLA-AMC, Bachem, Bubendorf, Switzerland) for β5c, and acetyl-Ala-Asn-Trp-7-amino-4-methylcoumarin (Ac-ANW-AMC, Bachem, Bubendorf, Switzerland) for β5i. Progress of the reaction was measured using a BioTek Synergy HT microplate reader, monitoring fluorescence at 460 nm (excitation at 360 nm) for 60 min at 37 °C. The initial linear ranges were used to calculate the reaction velocity and determine the residual activity.
as §2

[2] = Solubility remark (exclusion from cell-based assays); format: physicochemical; details: reason for not using in cell-based assays
β2i = details: in parentheses in Table S2; SI reference list; read-out: IC50 β2i, previously published data; cited from earlier work
β5i = details: in parentheses in Table S2; SI reference list; read-out: IC50 β5i, previously published data; cited from earlier work
β2c = details: in parentheses in Table S2; SI reference list; read-out: IC50 β2c, previously published data; cited from earlier work
β1c = details: in parentheses in Table S2, SI reference list, cited from earlier work
β1i = details: in parentheses in Table S2; SI reference list; read-out: IC50 β1i, previously published data; cited from earlier work
β5c = details: in parentheses in Table S2; SI reference list; read-out: IC50 β5c, previously published data; cited from earlier work
[3] = human cCP, mean of at least three experiments, NA: not active at 50 μM
[4] = human iCP, mean of at least three experiments, NA: not active at 50 μM
[5] = read-out: IC50 β1c, previously published data

SMILES | IC50 (β5c subunit of human cCP; [3]) [nM] | IC50 (β5i subunit of human iCP; [4]) [nM] | IC50 (β1i subunit of human iCP; [4]) [nM] | IC50 (β2i subunit of human iCP) [nM] | IC50 (β1c subunit of human cCP; [3]) [nM] | IC50 (β2c subunit of human cCP; [3]) [nM] | further results
O=C(N[C@@H](Cc1ccccc1)C(=O)N[C@H](B(O)O)c1ccccc1)c1cnccn1 [5a, ((R)-Phenyl((S)-3-Phenyl-2-(pyrazine-2-carboxamido)propanamido)methyl)boronic Acid] | 12800 | 220 | 746 | – | – | – | –
Cc1ccc([C@H](NC(=O)[C@H](Cc2ccccc2)NC(=O)c2cnccn2)B(O)O)cc1 [5b, ((R)-((S)-3-Phenyl-2-(pyrazine-2-carboxamido)propanamido)(p-tolyl)methyl)boronic Acid] | 712 | 32 | 42 | 9800 | 545 | – | Effect on secretion of cytokines in LPS-stimulated PBMCs (LPS-stimulated PBMCs): significantly diminished ability to affect cytokine release; fold lower potency on the cCP counterparts of β1i and β5i [1]: 10–20 fold
O=C(N[C@@H](Cc1ccccc1)C(=O)N[C@H](B(O)O)c1ccc(F)cc1)c1cnccn1 [5c, ((R)-(4-Fluorophenyl)((S)-3-phenyl-2-(pyrazine-2-carboxamido)propanamido)methyl)boronic Acid] | 225 | 32 | 38 | – | 526 | – | Effect on secretion of cytokines in LPS-stimulated PBMCs (LPS-stimulated PBMCs): significantly diminished ability to affect cytokine release; fold lower potency on the cCP counterparts of β1i and β5i [1]: 10–20 fold
O=C(N[C@@H](Cc1ccccc1)C(=O)N[C@H](B(O)O)c1ccc(Cl)cc1)c1cnccn1 [5d, ((R)-(4-Chlorophenyl)((S)-3-phenyl-2-(pyrazine-2-carboxamido)propanamido)methyl)boronic Acid] | 114 | 3 | 17 | 74500 | 897 | 1850 | IC50 for β5i, fold lower than for β5c (β5i subunit of human iCP; β5i vs β5c): 30 fold; IC50 for β1i, fold lower than for β1c (β1i subunit of human iCP; β1i vs β1c): 50 fold; solubility [2]: limited solubility
COc1ccc([C@H](NC(=O)[C@H](Cc2ccccc2)NC(=O)c2cnccn2)B(O)O)cc1 [5e, ((R)-(4-Methoxyphenyl)((S)-3-phenyl-2-(pyrazine-2-carboxamido)propanamido)methyl)boronic Acid] | 402 | 15 | 40 | 10400 | 1340 | 79000 | fold lower potency on the cCP counterparts of β1i and β5i [1]: 10–20 fold
CCOC(=O)c1cccc([C@H](NC(=O)[C@H](Cc2ccccc2)NC(=O)c2cnccn2)B(O)O)c1 [5f, ((R)-(3-(Ethoxycarbonyl)phenyl)((S)-3-phenyl-2-(pyrazine-2-carboxamido)propanamido)methyl)boronic Acid] | 3300 | 1300 | 22400 | – | – | – | –
O=C(N[C@@H](Cc1ccccc1)C(=O)N[C@H](B(O)O)c1ccc2c(c1)OCO2)c1cnccn1 [5g, ((R)-Benzo[d][1,3]dioxol-5-yl((S)-3-phenyl-2-(pyrazine-2-carboxamido)propanamido)methyl)boronic Acid] | 183 | 18 | 201 | 8600 | 315 | 45000 | IC50 for β5i, fold lower than for β1i, β1c, and β5c (β5i subunit of human iCP): 10 fold
O=C(N[C@@H](Cc1ccccc1)C(=O)N[C@H](B(O)O)c1ccc(-c2ccccc2)cc1)c1cnccn1 [5h, ((R)-[1,1′-Biphenyl]-4-yl((S)-3-phenyl-2-(pyrazine-2-carboxamido)propanamido)methyl)boronic Acid] | 12 | 24 | 270 | 260 | 1310 | – | IC50 β2c (β2c subunit of human cCP; [3]): no detectable inhibition; solubility [2]: limited solubility; IC50 (β1c subunit of human cCP; own assay): > 1000 nM; IC50 for both β5 subunits, fold better than IC50 for β1i [1]: 10–20 fold
O=C(N[C@@H](Cc1ccccc1)C(=O)N[C@@H](Cc1ccccc1)B(O)O)c1cnccn1 [5i, ((R)-2-Phenyl-1-((S)-3-phenyl-2-(pyrazine-2-carboxamido)propanamido)ethyl)boronic Acid] | 54 | 17 | 54 | 3400 | 235 | 4900 | –
CC[C@H](NC(=O)[C@H](Cc1ccccc1)NC(=O)c1cnccn1)B(O)O [5j, ((R)-1-((S)-3-phenyl-2-(pyrazine-2-carboxamido)propanamido)propyl)boronic Acid] | 11 | 19 | 2 | 1280 | 21 | 3400 | –
O=C(N[C@@H](Cc1ccccc1)C(=O)N[C@H](B(O)O)C1CC1)c1cnccn1 [5k, ((R)-Cyclopropyl((S)-3-phenyl-2-(pyrazine-2-carboxamido)propanamido)methyl)boronic Acid] | 5 | 9 | 172 | 499 | 827 | 440 | fold lower potency on β1c and β1i ([1]; compared with bortezomib): approximately 80 fold
CC(C)(C)ONC(=O)C[C@H](NC(=O)CCc1ccccc1)C(=O)N[C@@H](Cc1ccc(F)cc1)C(=O)NCc1cccc2ccccc12 [DPLG3] | – | – | – | – | – | – | IC50 (β2i): > 33300 nM; IC50 (β5i): 4.5 nM; IC50 (β2c): > 33300 nM; IC50 (β1c; [5]): > 33300 nM; IC50 (β1i subunit of human iCP; own assay): > 1000 nM; IC50 (β1i): > 33300 nM
COc1ccc(C[C@H](NC(=O)[C@H](C)NC(=O)CN2CCOCC2)C(=O)N[C@@H](CC2CCCC3CCCCC32)C(=O)[C@@]2(C)CO2)cc1 (stereo partly shown) [Lu-002i] | – | – | – | – | – | – | IC50 (β5i): > 100000 nM; IC50 (β5c): > 100000 nM; IC50 (β1c; [5]): > 100000 nM; IC50 (β1i): > 100000 nM
COc1ccc(C[C@H](NC(=O)[C@H](C)NC(=O)CN2CCOCC2)C(=O)N[C@@H](Cc2ccccc2)C(=O)[C@@]2(C)CO2)cc1 [ONX-0914] | – | – | – | – | – | – | IC50 (β5c): 54 nM; Effect on secretion of cytokines in LPS-stimulated PBMCs (LPS-stimulated PBMCs): Very similar result; IC50 (β2c): 1100 nM; IC50 (β1c; [5]): > 10000 nM
CC(C)C[C@H](NC(=O)[C@H](CCc1ccccc1)NC(=O)CN1CCOCC1)C(=O)N[C@@H](Cc1ccccc1)C(=O)N[C@@H](CC(C)C)C(=O)[C@@]1(C)CO1 [carfilzomib] | – | – | – | – | – | – | IC50 (β1c; read-out: IC50 β1c, literature data): 13 nM

Further lines, with some results ahead:

IC50 (β5c subunit of human cCP; [3]) [nM] | IC50 (β5i subunit of human iCP; [4]) [nM] | IC50 (β1i subunit of human iCP; [4]) [nM] | IC50 (β2i subunit of human iCP) [nM] | IC50 (β1c subunit of human cCP; [3]) [nM] | IC50 (β2c subunit of human cCP; [3]) [nM] | SMILES | further results
– | – | – | > 1000 | – | – | C[C@]1(C(=O)[C@H](Cc2ccccc2)NC(=O)[C@H](CO)NC(=O)c2cccc(=O)[nH]2)CO1 [KZR-504] | IC50 (β2i): > 250000 nM; IC50 (β2c subunit of human cCP; own assay): > 1000 nM; IC50 (β5i): 4300 nM; IC50 (β5c): 6900 nM; IC50 (β2c): > 250000 nM; IC50 (β1i subunit of human iCP; own assay): 59 ± 11 nM; IC50 (β1i): 51 nM
– | – | – | 338 ± 122 | – | – | COc1ccc([C@@H](O)[C@H](NC(=O)[C@H](C)NC(=O)CN2CCOCC2)C(=O)N[C@@H](CC2=CCCC2)C(=O)[C@@]2(C)CO2)cc1 [KZR-616, (2S,3R)-N-((S)-3-(Cyclopent-1-En-1-Yl)-1-((R)-2-Methyloxiran-2-yl)-1-Oxopropan-2-yl)-3-Hydroxy-3-(4-Methoxyphenyl)-2-((S)-2-(2-Morpholinoacetamido)Propanamido)Propenamide, reference compound] | IC50 (β2i): 623 nM; IC50 (β5c subunit of human cCP; own assay): 426 ± 48 nM; IC50 (β2c subunit of human cCP; own assay): 403 ± 151 nM; IC50 (β5i): 39 nM; IC50 (β5c): 688 nM; IC50 (β5i subunit of human iCP; own assay): 26 ± 21 nM; Effect on secretion of cytokines in LPS-stimulated PBMCs (LPS-stimulated PBMCs): reduced the secretion of IL-1, IL-6, IL-8, IL-10, and TNF-α to a significant degree; IC50 (β2c): 604 nM; IC50 (β1c; [5]): > 10600 nM; IC50 (β1i subunit of human iCP; own assay): 96 ± 32 nM; IC50 (β1c subunit of human cCP; own assay): > 1000 nM; IC50 (β1i): 131 nM
– | – | – | > 1000 | – | – | CC(C)C[C@H](NC(=O)C(C)(C)NC(=O)c1ccccc1C(F)(F)F)B(O)O [ML604440, reference compound] | IC50 (β5c subunit of human cCP; own assay): > 1000 nM; IC50 (β2c subunit of human cCP; own assay): > 1000 nM; IC50 (β5i): > 1000 nM; IC50 (β5c): > 1000 nM; IC50 (β5i subunit of human iCP; own assay): > 1000 nM; IC50 (β1i subunit of human iCP; own assay): 8 ± 5 nM; IC50 (β1c subunit of human cCP; own assay): > 1000 nM; IC50 (β1i): ~12.5 nM and 12.5 nM
